Source: patent publication US5688773A, “Method of selectively destroying neoplastic cells” (priority 1994, dated 1997)
Like-named read-outs stand apart in the source and are kept apart here.

Tests used:
[1] = test system: C6 cells co-cultured with C6-P450 cells; assay: Co-culture assay (cell-mediated effect); format: cell-based, rat; conditions: 0.5 mM CPA; for inhibition at 500 µM: Rattus norvegicus, C6, 96 h, 4 days, read-out: decrease in the proliferation of C6 cells
Experimental: (§1) Co-culture assay: Co-cultures of C6-P450 and C6 cells were incubated in triplicate at different ratios (where 0, 10, 50, 90, and 100% of the cells were C6-P450 cells) to achieve a total number of 2×10^6 cells/10 cm dish. After 24 hours, 0.5 mM CPA was added and four days later, cells were counted as previously described. To compare the killing achieved by cell contact with that obtained by exposure to conditioned medium, the supernatant from each co-culture was harvested, filtered through 0.45 μm membrane filters, mixed in a 1:1 ratio with 5 mL of fresh medium and added to overnight cultures of C6 cells (2×10^6 cells/10 cm dish in triplicate). Four days later, C6 cells were washed, harvested and counted. To determine the specificity of the cell-mediated killing effect from the co-culture assays, C6 cells were incubated overnight with C6 cells that expressed the neomycin phosphotransferase gene (C6-Neo), with irradiated C6 cells, with irradiated C6-Neo, and with irradiated C6-P450 cells. γ-irradiation was performed by exposing cells to a total of 6000 rads emitted by a ^51 chromium source.

[2] = test system: C6 cells co-cultured with irradiated C6-P450 cells; assay: Co-culture assay with irradiated cells; format: cell-based; conditions: Rattus norvegicus, light or radiation study, 96 h; 10% irradiated C6-P450 cells; 0.5 mM CPA, four days; read-out: decrease in the proliferation of C6 cells
Experimental: as §1

control tumor MCF-7 Z3 = assay: MCF-7 tumors in nude mouse model; format: in vivo, nude mice; conditions: 100 mg/kg ×2 intraperitoneal, day 0 and day 2
Experimental: (§2) MCF-7 cells or stable MCF-7 cell transfectants expressing cytochrome P450 2B1 or E. coli β-galactosidase (lacZ) were grown in cell culture. Cells in the exponential growth phase were harvested and then injected subcutaneously (1×10^7 cells in 0.2 mL) in the flanks of nude mice. A single 17β-estradiol pellet (1.7 mg hormone/60-day release pellet, Innovative Research, Toledo, Ohio) was implanted one day before tumor inoculation. At one month after tumor inoculation, the size of each tumor was measured using a vernier caliper.
(§3) Nude mice were then treated with cyclophosphamide given at 100 mg/kg body weight×2, by intraperitoneal injection given on day 0 and again on day 2. Tumor size measurements were then again determined using a vernier caliper, and data are expressed relative to tumor sizes as of day 0, the day of initial cyclophosphamide (CPA) injection.

[3] = test system: cytochrome P450 2B1-expressing MCF-7 cells; assay: MCF-7 tumors in nude mouse model; format: in vivo, nude mice; conditions: 100 mg/kg ×2 intraperitoneal, day 0 and day 2
Experimental: as §2, §3

CNEO-1 cells = assay: Cyclophosphamide dose-response assay; format: cell-based; conditions: Rattus norvegicus, C6 glioma; up to 1 mM CPA; read-out: cells that survived incubation
Experimental: Two days later CPA was added to final concentrations of 0-100 μM. Five days after plating, the monolayers were rinsed twice with Hank's buffered saline (GIBCO) to remove dead cells. Monolayers were dispersed using trypsin-EDTA (GIBCO), and cell numbers were determined using a Coulter counter (Coulter Electronics Inc.).

[4] = test system: C450-8 (C6-derived clone, cytochrome P450 2B1); assay: Growth in the presence of 500 μM cyclophosphamide; conditions: 500 μM CPA, four days
[5] = test system: mixed culture of 9L and 9L-ZP cells; assay: Cytotoxicity toward mixed cultures; format: cell-based, rat; conditions: Rattus norvegicus, 120 h; equal numbers of 9L and 9L-ZP; 1 mM cyclophosphamide, 5 days; read-out: total cell population eradicated
Experimental: FIG. 28 is a bar graph depicting the cytotoxicity of oxazaphosphorines toward mixed cultures of 9L and 9L-ZP cells. Equal numbers of parental 9L cells were mixed with 9L-ZP cells (total initial cell number=1×10^5 /30 mm tissue culture dish). […] Cell numbers were determined 5 days after beginning drug treatment. Data (mean ±range of duplicates) are expressed as growth ratio (%) relative to drug-free controls.
To test for drug sensitivity, 1×10^5 cells were plated in 30-mm tissue culture plates (Falcon 3046) in duplicate. Drugs were added 18-24 hours after seeding. Cells were allowed to grow for times ranging up to 5 days after drug treatment, and the final cell number was then determined. Cells were rinsed with phosphate buffered saline or Hank's buffered saline, dispersed using trypsin-EDTA (GIBCO/BRL, Inc.), and then counted with a hemocytometer. Results are expressed as a growth ratio, i.e., the number of cells in plates containing drug as a percentage of the corresponding drug-free controls (mean±range of duplicate determinations).

C6-P450 cells = assay: Cell proliferation assay
[6] = test system: C6 cells exposed to CM from C6; assay: C6 colony formation after conditioned medium from drug-exposed cells; format: cell-based, rat; conditions: for Colony numbers: colonies six days later
[7] = test system: C6BBAG cells co-cultured with C6VIKWT cells; assay: Delayed co-culture, ganciclovir sensitivity of recipient colonies; format: cell-based; conditions: Rattus norvegicus, ratio 1:2, read-out: ganciclovir concentration at which 50% of cells grew
Experimental: Donor C6VIK or C6VIKWT cells were then added to the cultures at a ratio of 1:2 (5×10^4 recipient cells: 10^5 donor cells). Control cultures consisted of C6BAG or C6BBAG cells alone, or C6BA6 or C6BBAG cells co-plated with "donor" C6BU1 or C6BWT cells, after delay, as above. After 10 days, ganciclovir was added at varying concentrations (0-300 μM) and cells were incubated for another 9-12 days with the drug. Cells were then fixed with 0.5% glutaraldehyde and stained histochemically for beta-galactosidase activity, as described (Price et al., Proc. Natl. Acad. Sci. USA 84:1141-1145 (1987)), and colonies were counted.

C6VIKWT cells = assay: Ganciclovir sensitivity, cell proliferation assay; format: cell-based; conditions: Rattus norvegicus, 96 h; four-day period; read-out: Fifty percent inhibition of growth
Experimental: Ganciclovir Sensitivity Assays in Culture: To measure the sensitivity of isolated cells, cells were plated in 24-well plates at a density of 10^4 cells per well. The next day, medium was replaced with medium containing ganciclovir (Cytovene, Burroughs Wellcome) at varying concentrations (0-1 μM) in quadruplicate. Four days later, cells were harvested using trypsin and counted using a cell counter (Coulter Electronics Ltd., Luton, United Kingdom). Cell growth is expressed as the percentage of cells compared to the number of cells without treatment (100%).

## O=P1(N(CCCl)CCCl)NCCCO1 (stereo not shown) [cyclophosphamide]
[1]; 90% C6-P450 cells, four days
  Inhibition of proliferation of remaining C6 cells: complete inhibition
[1]; 10% of cells express the P450 gene
  inhibition at 500 µM: 75%
[1]; 50% of cells contain the P450 gene
  inhibition at 500 µM: ~85%
[2]
  inhibition at 500 µM: 30%
Control tumor MCF-7 Z3
  Tumor cyclophosphamide sensitivity in vivo: only a moderate cyclophosphamide sensitivity
[3]
  Tumor cell kill in vivo: preferentially killed
CNEO-1 cells
  viability at 1000 µM: ≥ 80%
[4]
  Cell destruction: destroyed completely
[5]
  cytotoxicity at 1000 µM: ~80%
C6-P450 cells; 0.5 mM CPA, 10 days
  Growth inhibition: complete growth inhibition
C6-P450 cells; 0.5 mM, four days
  Effect on cell proliferation: complete inhibition of cell proliferation
C6-P450 cells; Table V panel A, 0.5 mM, four days
  Cell proliferation assay, number of cells: 1.15±0.11 ×10^6
[6]; CM after 0.5 h of 0.5 mM CPA
  Colony numbers: 247 ± 3
[6]; CM after 1.5 h of 0.5 mM CPA
  Colony numbers: 256 ± 7
[6]; CM after 3 h of 0.5 mM CPA
  Colony numbers: 257 ± 1
[6]; CM after 6 h of 0.5 mM CPA
  Colony numbers: 260 ± 4
[6]; CM after 10 h of 0.5 mM CPA
  Colony numbers: 245 ± 5
[6]; CM after 24 h of 0.5 mM CPA
  Colony numbers: 255 ± 14
[6]; CM after 32 h of 0.5 mM CPA
  Colony numbers: 240 ± 2
[6]; CM after 48 h of 0.5 mM CPA
  Colony numbers: 245 ± 6
[6]; CM after 72 h of 0.5 mM CPA
  Colony numbers: 260 ± 5
[6]; CM after 96 h of 0.5 mM CPA
  Colony numbers: 260 ± 9
[6]; Table V panel C, CM from treated C6 cultures
  Secretion effect, C6 colony number: 271±14.2

## Nc1nc(O)c2ncn(COC(CO)CO)c2n1 [ganciclovir]
[7]
  IC50: 30 µM
C6VIKWT cells
  IC50: 0.0003 µM
